In patent publication US10336732B2, “1-heterocyclyl isochromanyl compounds and analogs for treating CNS disorders” (Sunovion Pharmaceuticals Inc., priority 2015, dated 2019):

Test system: mice
Test: Neuropharmacological assay (SmartCube), behavioral signature of compound-treated mice
Format: in vivo
Details: i.p. 15 min before behavioral test, most efficacious dose(s) of 3 doses
How it was run: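 Read-out is an automated video-based behavioral signature, scored as per-class probabilities (e.g., anxiolytic, antidepressant) against reference compounds. Dosing was i.p. at three doses, 15 min pre-test, in NMP, polyethylene glycol and propylene glycol. Values shown are from the most efficacious dose(s).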

With `Fc1ccc2c(c1)CCO[C@H]2[C@@H]1CCCCN1` [Compound I-74, (S)-2-((R)-6-fluoroisochroman-1-yl)piperidine] as the compound, how does the “AD: ADHD (probability that behavioral signature matches class)” value (from here on “AD: ADHD”) read?
Its value is “+ (LOQ ≤ + <5%)”.

And the “AG: analgesic (probability that behavioral signature matches class)” value (“AG: analgesic” for short)?
The value was “++ (5% ≤ ++ <25%)”.

And the “AX: anxiolytic (probability that behavioral signature matches class)” value (from here on “AX: anxiolytic”)?
Its value is “++ (5% ≤ ++ <25%)”.

What about the “CE: cognitive enhancer (probability that behavioral signature matches class)” value (shortened to “CE: cognitive enhancer”) of the same compound?
The value was “++ (5% ≤ ++ <25%)”.

And the “DP: anti-depressant (probability that behavioral signature matches class)” value (“DP: anti-depressant” below)?
Its value is “++ (5% ≤ ++ <25%)”.

And the “HA: hallucinogen (probability that behavioral signature matches class)” value (shortened to “HA: hallucinogen”)?
The value was “+ (LOQ ≤ + <5%)”.

And the “MS: mood stabilizer (probability that behavioral signature matches class)” value (from here on “MS: mood stabilizer”)?
Its value is “+ (LOQ ≤ + <5%)”.

And the “PS: anti-psychotic (probability that behavioral signature matches class)” value (“PS: anti-psychotic” below)?
Its value is “+++ (25% ≤ +++ <50%)”.

And the “SD: sedative hypnotic (probability that behavioral signature matches class)” value (from here on “SD: sedative hypnotic”)?
Its value is “++ (5% ≤ ++ <25%)”.

What about the “UN: uncharacterized CNS activity (probability that behavioral signature matches class)” value (from here on “UN: uncharacterized CNS activity”) of the same compound?
The value was “+ (LOQ ≤ + <5%)”.

What about the “XG: anxiogenic (probability that behavioral signature matches class)” value (“XG: anxiogenic” for short) of the same compound?
Its value is “+ (LOQ ≤ + <5%)”.

For `Fc1ccc2c(c1)CCCO[C@H]2[C@@H]1CCCN1` [Compound I-111, (S)-2-((R)-7-fluoro-1,3,4,5-tetrahydrobenzo[c]oxepin-1-yl)pyrrolidine], which “AD: ADHD” value is on record?
Its value is “+ (LOQ ≤ + <5%)”.

And the “AG: analgesic” value?
The value was “++ (5% ≤ ++ <25%)”.

What about the “AX: anxiolytic” value of the same compound?
The value was “++ (5% ≤ ++ <25%)”.

What about the “CE: cognitive enhancer” value of the same compound?
Its value is “++ (5% ≤ ++ <25%)”.

What about the “DP: anti-depressant” value of the same compound?
Its value is “++ (5% ≤ ++ <25%)”.

And the “HA: hallucinogen” value?
Its value is “+ (LOQ ≤ + <5%)”.

What about the “MS: mood stabilizer” value of the same compound?
The value was “+ (LOQ ≤ + <5%)”.

And the “PS: anti-psychotic” value?
The value was “++++ (50% ≤ ++++)”.

What about the “SD: sedative hypnotic” value of the same compound?
The value was “++ (5% ≤ ++ <25%)”.

What about the “UN: uncharacterized CNS activity” value of the same compound?
Its value is “+++ (25% ≤ +++ <50%)”.

And the “XG: anxiogenic” value?
The value was “+ (LOQ ≤ + <5%)”.

`Cc1cccc2c1[C@@H]([C@H]1CCCN1)OCC2` [Compound I-24, (R)-2-((S)-8-methylisochroman-1-yl)pyrrolidine] was tested. Which “AD: ADHD” value did it give?
The value was “+ (LOQ ≤ + <5%)”.

And the “AG: analgesic” value?
The value was “++ (5% ≤ ++ <25%)”.

What about the “AX: anxiolytic” value of the same compound?
Its value is “++ (5% ≤ ++ <25%)”.

What about the “CE: cognitive enhancer” value of the same compound?
Its value is “++ (5% ≤ ++ <25%)”.

What about the “DP: anti-depressant” value of the same compound?
The value was “+++ (25% ≤ +++ <50%)”.

What about the “HA: hallucinogen” value of the same compound?
Its value is “+ (LOQ ≤ + <5%)”.

What about the “MS: mood stabilizer” value of the same compound?
The value was “++ (5% ≤ ++ <25%)”.

And the “PS: anti-psychotic” value?
The value was “++ (5% ≤ ++ <25%)”.

And the “SD: sedative hypnotic” value?
The value was “++ (5% ≤ ++ <25%)”.

What about the “UN: uncharacterized CNS activity” value of the same compound?
The value was “+ (LOQ ≤ + <5%)”.

And the “XG: anxiogenic” value?
Its value is “+ (LOQ ≤ + <5%)”.

With `c1ccc2c(c1)CCO[C@@H]2C1CNC1` [Compound I-114, (R)-3-(isochroman-1-yl)azetidine] as the compound, how does the “AD: ADHD” value read?
The value was “+ (LOQ ≤ + <5%)”.

And the “AG: analgesic” value?
Its value is “++ (5% ≤ ++ <25%)”.

What about the “AX: anxiolytic” value of the same compound?
Its value is “++ (5% ≤ ++ <25%)”.

What about the “CE: cognitive enhancer” value of the same compound?
The value was “++ (5% ≤ ++ <25%)”.

What about the “DP: anti-depressant” value of the same compound?
The value was “+++ (25% ≤ +++ <50%)”.

What about the “HA: hallucinogen” value of the same compound?
The value was “+ (LOQ ≤ + <5%)”.

And the “MS: mood stabilizer” value?
Its value is “+ (LOQ ≤ + <5%)”.

And the “PS: anti-psychotic” value?
Its value is “++ (5% ≤ ++ <25%)”.

And the “SD: sedative hypnotic” value?
Its value is “++ (5% ≤ ++ <25%)”.

And the “UN: uncharacterized CNS activity” value?
The value was “+ (LOQ ≤ + <5%)”.

And the “XG: anxiogenic” value?
Its value is “+ (LOQ ≤ + <5%)”.

Which “AD: ADHD” value does the source give for `Fc1ccc2c(c1)CCO[C@H]2[C@H]1CCN1` [Compound I-92, (R)-2-((R)-6-fluoroisochroman-1-yl)azetidine] here?
Its value is “+ (LOQ ≤ + <5%)”.

And the “AG: analgesic” value?
Its value is “++ (5% ≤ ++ <25%)”.

And the “AX: anxiolytic” value?
The value was “++ (5% ≤ ++ <25%)”.

What about the “CE: cognitive enhancer” value of the same compound?
Its value is “+++ (25% ≤ +++ <50%)”.

And the “DP: anti-depressant” value?
Its value is “++ (5% ≤ ++ <25%)”.

And the “HA: hallucinogen” value?
Its value is “+ (LOQ ≤ + <5%)”.

And the “MS: mood stabilizer” value?
The value was “++ (5% ≤ ++ <25%)”.

What about the “PS: anti-psychotic” value of the same compound?
The value was “+++ (25% ≤ +++ <50%)”.

What about the “SD: sedative hypnotic” value of the same compound?
Its value is “+ (LOQ ≤ + <5%)”.

What about the “UN: uncharacterized CNS activity” value of the same compound?
Its value is “+ (LOQ ≤ + <5%)”.

What about the “XG: anxiogenic” value of the same compound?
Its value is “+ (LOQ ≤ + <5%)”.

How did the “AD: ADHD” value turn out when `c1ccc2c(c1)CCO[C@H]2[C@@H]1CCCCN1` [Compound I-72, (S)-2-((R)-isochroman-1-yl)piperidine] was run?
The value was “+ (LOQ ≤ + <5%)”.

And the “AG: analgesic” value?
The value was “++ (5% ≤ ++ <25%)”.

And the “AX: anxiolytic” value?
Its value is “++ (5% ≤ ++ <25%)”.

And the “CE: cognitive enhancer” value?
The value was “+ (LOQ ≤ + <5%)”.

What about the “DP: anti-depressant” value of the same compound?
Its value is “+ (LOQ ≤ + <5%)”.

And the “HA: hallucinogen” value?
The value was “+ (LOQ ≤ + <5%)”.

What about the “MS: mood stabilizer” value of the same compound?
Its value is “+ (LOQ ≤ + <5%)”.

And the “PS: anti-psychotic” value?
Its value is “+ (LOQ ≤ + <5%)”.

And the “SD: sedative hypnotic” value?
The value was “+ (LOQ ≤ + <5%)”.

And the “UN: uncharacterized CNS activity” value?
The value was “+++ (25% ≤ +++ <50%)”.

And the “XG: anxiogenic” value?
The value was “++ (5% ≤ ++ <25%)”.

How did the “AD: ADHD” value turn out when `Cc1cccc2c1[C@H]([C@H]1CCCN1)OCC2` [Compound I-23, (R)-2-((R)-8-methylisochroman-1-yl)pyrrolidine] was run?
The value was “+ (LOQ ≤ + <5%)”.

And the “AG: analgesic” value?
Its value is “+++ (25% ≤ +++ <50%)”.

And the “AX: anxiolytic” value?
The value was “++ (5% ≤ ++ <25%)”.

What about the “CE: cognitive enhancer” value of the same compound?
The value was “++ (5% ≤ ++ <25%)”.

And the “DP: anti-depressant” value?
The value was “++ (5% ≤ ++ <25%)”.

And the “HA: hallucinogen” value?
Its value is “+ (LOQ ≤ + <5%)”.

What about the “MS: mood stabilizer” value of the same compound?
Its value is “++ (5% ≤ ++ <25%)”.

What about the “PS: anti-psychotic” value of the same compound?
Its value is “+++ (25% ≤ +++ <50%)”.

And the “SD: sedative hypnotic” value?
The value was “++ (5% ≤ ++ <25%)”.

And the “UN: uncharacterized CNS activity” value?
The value was “+ (LOQ ≤ + <5%)”.

What about the “XG: anxiogenic” value of the same compound?
The value was “+ (LOQ ≤ + <5%)”.

Which results are given for `COc1cccc2c1[C@H]([C@@H]1CCCN1)OCC2` [Compound I-47, (S)-2-((R)-8-methoxyisochroman-1-yl)pyrrolidine]?
AD: ADHD (probability that behavioral signature matches class): + (LOQ ≤ + <5%); AG: analgesic (probability that behavioral signature matches class): + (LOQ ≤ + <5%); AX: anxiolytic (probability that behavioral signature matches class): ++ (5% ≤ ++ <25%); CE: cognitive enhancer (probability that behavioral signature matches class): + (LOQ ≤ + <5%); DP: anti-depressant (probability that behavioral signature matches class): + (LOQ ≤ + <5%); HA: hallucinogen (probability that behavioral signature matches class): + (LOQ ≤ + <5%); MS: mood stabilizer (probability that behavioral signature matches class): + (LOQ ≤ + <5%); PS: anti-psychotic (probability that behavioral signature matches class): + (LOQ ≤ + <5%); SD: sedative hypnotic (probability that behavioral signature matches class): + (LOQ ≤ + <5%); UN: uncharacterized CNS activity (probability that behavioral signature matches class): + (LOQ ≤ + <5%); XG: anxiogenic (probability that behavioral signature matches class): + (LOQ ≤ + <5%)
